Experimental data taken from paper PMC5171801, “Identification and Characterization of Roseltide, a Knottin-type Neutrophil Elastase Inhibitor Derived from Hibiscus sabdariffa” (Scientific Reports, 2016).
pIC50: −log10 of the molar value. Ends that are not written are not given here.

Key:
[1] = target: T1, Human neutrophil elastase (HNE) (Homo sapiens, UniProt P08246); assay: Human neutrophil elastase inhibition assay; format: biochemical; details: 1.75 U/mL HNE, 0.6 mM N-Methoxysuccinyl-Ala-Ala-Pro-Val p-nitroanilide, 100 mM Tris buffer pH 8.0, 37 °C, absorbance 405 nm for 1 h, normalized initial velocity, mean n = 3; read-out: IC50, enzymatic activity of human neutrophil elastase
T1 construct: purchased Sigma-Aldrich or ThermoFisher Scientific (general statement only)
T1 sequence (P08246 30-267): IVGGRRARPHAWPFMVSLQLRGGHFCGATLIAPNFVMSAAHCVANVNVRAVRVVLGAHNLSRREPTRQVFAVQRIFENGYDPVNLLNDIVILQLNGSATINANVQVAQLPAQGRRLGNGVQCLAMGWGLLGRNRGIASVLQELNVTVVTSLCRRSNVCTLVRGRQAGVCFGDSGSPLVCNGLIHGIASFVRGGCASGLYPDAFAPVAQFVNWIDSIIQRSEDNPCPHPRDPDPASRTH
Method: Human neutrophil elastase (HNE) activity was determined by measuring the release of p-nitroanilide at 405 nm at 37 °C using N-Methoxysuccinyl-Ala-Ala-Pro-Val p-nitroanilide as substrates. Purified roseltide rT1 was incubated with 1.75 U/mL HNE and 0.6 mM substrate in 100 mM Tris buffer (pH 8.0) at 37 °C; absorbance was measured continuously for 1 h. […] The results were presented as normalized initial velocity.

[2] = tested on: PAR2-cAMP-CHO cells; assay: Glosensor cAMP assay, neutrophil elastase-stimulated cAMP accumulation; format: cell-based, Chinese Hamster; details: co-incubation of HNE with peptide; CHO-K1 co-expressing PAR2 and Glosensor cAMP biosensor; luminescence 20 min, area under the curve; n = 3
Method: Huh7 (human liver carcinoma cells), A549 (human lung adenocarcinoma epithelial cells) cells, and Chinese Hamster Ovary-K1 cells (CHO-K1) were cultured in Dulbecco’s Modified Eagle’s Medium (DMEM)/Ham’s F12 containing 15 mM HEPES and L-glutamine and supplemented with 10% fetal bovine serum, 100 U/mL of penicillin, and streptomycin. The cells were grown in a 5% CO2 humidified incubator at 37 °C. CHO-K1 cells were transfected with pGlosensor-20F plasmid by electroporation and selected using 500 μg/mL hygromycin. CHO-K1 cells stably expressing the pGlosensor-20F construct (cAMP-CHO) were then transfected with pCMV6-XL5 encoding PAR2 receptor (NM 005242.3) and selected using 500 μg/mL G418. Stable cell lines co-expressing both pGlosensor-20F and PAR2 receptor constructs (PAR2-cAMP-CHO) were maintained with 500 μg/mL hygromycin and 500 μg/mL G418.
Glosensor cAMP assays were performed according to the manufacturer’s instructions. […] Luminescent intensity was measured using a microplate reader (Tecan Infinite 200 Pro, Switzerland); the plate was pre-read for 30 s to establish basal luminescent level. Following treatment, luminescent levels were continuously monitored for 20 min. The results are presented as fold change relative to basal luminescent levels and were quantified using the area under the curve.

[3] = Acid stability; format: physicochemical; details: in 0.2 M HCl, 37 °C, 0-120 min, RP-UHPLC peak area as % of initial, n = 3
Method: 0.1 M of purified roseltide rT1 was dissolved in 0.2 M HCl or phosphate buffered saline (PBS) (control) and incubated at 37 °C. Samples were collected at various time points (0, 15, 30, 45, 60 and 120 min).

[4] = target: pepsin (Sus scrofa, UniProt P00791); details: 0.1 M peptide, 0.2 M HCl, pepsin 50:1 (w/v), 37 °C, 0-120 min, RP-UHPLC peak area, n = 3
pepsin, sequence (P00791 60-385): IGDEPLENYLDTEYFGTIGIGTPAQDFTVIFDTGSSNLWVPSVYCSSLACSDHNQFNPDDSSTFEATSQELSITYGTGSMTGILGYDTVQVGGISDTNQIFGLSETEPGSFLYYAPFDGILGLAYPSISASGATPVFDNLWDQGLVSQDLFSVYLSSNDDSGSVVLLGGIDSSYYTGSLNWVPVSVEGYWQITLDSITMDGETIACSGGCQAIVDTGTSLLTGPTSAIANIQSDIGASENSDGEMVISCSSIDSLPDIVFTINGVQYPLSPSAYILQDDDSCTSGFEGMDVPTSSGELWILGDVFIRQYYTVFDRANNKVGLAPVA
Method: (§1) 0.1 M of purified roseltide rT1 was dissolved in 100 mM Tris buffer (pH 8) and incubated with trypsin (Catalog number: T1426, Roche Applied Science, US) in a 50:1 (w/v) ratio at 37 °C. 0.1 M of purified roseltide rT1 was dissolved in 0.2 M HCl and incubated with pepsin (Catalog number: 03117901001, Roche Applied Science, US) in a 50:1 (w/v) ratio at 37 °C. […] Samples were collected at various time points (0, 15, 30, 45, 60 and 120 min).
(§2) All collected samples from various stability assays were analyzed by RP-UHPLC with a linear gradient of mobile phase A (0.05% TFA/H2O) and mobile phase B (0.05% TFA/ACN) on C18 column (3.6 μm particle size; 2.1 mm internal diameter; 10 cm length) (Phenomenex, US). The resulting peaks were collected and the identified by MALDI-TOF MS. The results were expressed as percentage of initial concentration using the peak area of the UHPLC profile.

[5] = target: trypsin (Bos taurus, UniProt P00760); details: 0.1 M peptide, 100 mM Tris buffer pH 8, trypsin 50:1 (w/v), 37 °C, 0-120 min, RP-UHPLC peak area, n = 3
trypsin, sequence (P00760 24-246): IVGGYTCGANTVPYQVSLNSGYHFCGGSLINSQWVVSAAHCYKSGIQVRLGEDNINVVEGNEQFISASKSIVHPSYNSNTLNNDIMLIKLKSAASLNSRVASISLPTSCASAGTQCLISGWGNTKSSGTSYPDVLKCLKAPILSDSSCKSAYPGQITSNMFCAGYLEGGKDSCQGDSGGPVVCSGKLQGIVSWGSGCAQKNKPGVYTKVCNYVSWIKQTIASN
Method: as §1, §2

[6] = Human serum stability; format: in vitro ADME; details: 0.1 M peptide, 25% human serum in DMEM without phenol red, 37 °C, 0, 24 and 48 h, ethanol precipitation, RP-UHPLC peak area, n = 3
Method: 0.1 M of purified roseltide rT1 was prepared in 25% human serum in DMEM medium without phenol red. The test samples were incubated at 37 °C. DALK was used as a positive control. Samples were collected at various time points (0, 24 and 48 h). The collected samples were subjected to protein precipitation with 100% ethanol and centrifugation at 180,000 g for 5 min at 4 °C. The supernatant was collected for analysis.

[7] = target: human neutrophil elastase (human) (UniProt P08246)

| Substance | pIC50 [1] | effect on human neutrophil elastase-stimulated cAMP accumulation [2] | acid stability (resistance against degradation) [3] | pepsin stability (resistance against degradation) [4] | trypsin stability (resistance against degradation) [5] | human serum stability (resistance against degradation) [6] | inhibition of the enzymatic activity of human neutrophil elastase (release of p-nitroanilide from N-methoxysuccinyl-Ala-Ala-Pro-Val p-nitroanilide, 405 nm, 37 °C, 100 mM Tris pH 8.0), IC50 [7] [μM] |
| --- | --- | --- | --- | --- | --- | --- | --- |
| CIPRGGICLVALSGCCNSPGCIFGICA (also: bicyclic or more (positions not given here)) [roseltide rT1, 27-residue cystine-knot peptide purified from Hibiscus sabdariffa calyces; disulfides Cys1-Cys16, Cys8-Cys21, Cys15-Cys26] | 6.33 | significantly suppressed | resistant | resistant | resistant | resistant | – |
| roseltide rT1 (peptide) | – | – | – | – | – | – | 0.47 |
